Earlier results on 11 compounds are cited in patent US20240398903A1, “COMPOSITION AND METHODS OF TREATMENT USING […] - ENHANCED SUPPLEMENTATION” (Xygenyx Inc., priority 2023, published 2024).

The conditions of data set [1]: mice.
The subject of data set [2] is skin. The settings on record: penetration enhancer for transdermal drugs.
The subject of data set [3] is wide dynamic range neurons in the ventroposterolateral nucleus of the thalamus. The settings on record: in vivo.
For data set [4] the following is noted: in vivo.
The subject of data set [5] is skin. The conditions noted are these: topical, concentrations 0.5-5%.
The conditions of data set [6]: as compared to α-tocopherol (factor 1.0).
For data set [7] the following is noted: even when dietary intake occurs in equal portions.
The conditions of data set [8]: in vivo. The source holds these as a separate data set.

`CC(CN)C(=O)O` [L-BAIBA, L-beta-aminoisobutyric acid]: the tolerated dose in data set [1] is reported as 10-100 mg/kg of bodyweight.

Regarding `CC(C)[C@@H]1CC[C@@H](C)C[C@H]1O` [Menthol], the “increase of drug uptake via the transdermal route (factor)” value in the data set with skin [2] is given as at least 10.

With `CCCCCc1cc(O)c2c(c1)OC(C)(C)C1CCC(C)=CC21` (stereo not drawn) [THC, Δ-9-tetrahydrocannabinol], the “power in mediating pain relative to morphine” value in data set [3] is reported as “ten times more powerful than morphine”.

On to `CCNC(=O)CC[C@H](N)C(=O)O` [Theanine], for which, in data set [4], the “dose considered safe and well-tolerated” value is reported as “up to 400 mg per day”.

In the case of `C=CCCCCCCCCC(=O)N[C@@H](Cc1ccccc1)C(=O)O` [UP, Undecylenoyl phenylalanine], in the data set with skin [5], the “time of treatment to skin lightening effects” value is at least 7 days.

`CC12CCC(CC1)C(C)(C)O2` [eucalyptol, 1,8-epoxy-p-menthane]: the “increase of drug uptake via the transdermal route (factor)” value in the data set on skin [2] was “more than 10”.

As to `Cc1c(C)c2c(c(C)c1O)CC[C@@](C)(CCC[C@H](C)CCC[C@H](C)CCCC(C)C)O2` [α-tocopherol], for the setting “dietary supplementation, doses up to 400 IU/day”, the “reducing the risk of coronary disease” value is on record as “up to 34%”. Moreover, the “reduce the risk of developing neurodegenerative diseases such as Alzheimer's Syndrome or dementia” value (dietary supplementation, doses up to 400 IU/day, controlled trials) was at most 24%. The “reduction in the development of age-related cataracts” value (in combination with 10-20 mg β-carotene and 400-500 mg vitamin C) is 23%. Also, the relative biological activity in data set [6] is reported as 1.0.

With `Cc1cc(O)c(C)c2c1O[C@](C)(CCC[C@H](C)CCC[C@H](C)CCCC(C)C)CC2` [β-tocopherol], the relative biological activity in data set [6] is on record as 0.5.

On to `Cc1c(O)cc2c(c1C)O[C@](C)(CCC[C@H](C)CCC[C@H](C)CCCC(C)C)CC2` [γ-tocopherol], for which the relative biological activity in [6] is given as 0.1. The “concentration in vivo relative to α-tocopherol” value in [7] is “roughly 10%”.

With `Cc1cc(O)cc2c1O[C@](C)(CCC[C@H](C)CCC[C@H](C)CCCC(C)C)CC2` [δ-tocopherol], the relative biological activity in data set [6] is listed as 0.03.

Consider “HGH: hormone comprising a peptide chain that is synthesized in the pituitary gland”, for which the biological half-life in data set [8] is listed as 10-20 minutes.
